Measured values as given in patent US9630947B2, “Therapeutic compounds and related methods of use” (OTSUKA PHARMACEUTICAL CO., LTD., priority 2009, dated 2017).

Target: T1, purified STEP46 enzyme (Homo sapiens, UniProt P54829)
T1 sequence (P54829 1-565): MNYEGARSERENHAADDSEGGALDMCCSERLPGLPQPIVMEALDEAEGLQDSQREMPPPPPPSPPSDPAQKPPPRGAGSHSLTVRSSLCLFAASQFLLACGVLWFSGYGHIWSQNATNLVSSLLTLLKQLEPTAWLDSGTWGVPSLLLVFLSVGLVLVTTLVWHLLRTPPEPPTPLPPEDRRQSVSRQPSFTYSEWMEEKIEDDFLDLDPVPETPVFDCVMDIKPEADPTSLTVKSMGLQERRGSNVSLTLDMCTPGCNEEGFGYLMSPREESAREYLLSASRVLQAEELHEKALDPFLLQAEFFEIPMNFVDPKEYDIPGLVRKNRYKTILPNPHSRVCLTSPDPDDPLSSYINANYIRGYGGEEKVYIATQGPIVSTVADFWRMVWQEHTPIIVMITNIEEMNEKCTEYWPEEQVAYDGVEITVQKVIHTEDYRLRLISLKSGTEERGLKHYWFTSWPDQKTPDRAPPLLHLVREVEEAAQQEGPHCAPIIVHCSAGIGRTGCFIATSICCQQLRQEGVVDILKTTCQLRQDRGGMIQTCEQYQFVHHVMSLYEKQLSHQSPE
Assay: STEP46 biochemical assay (DiFMUP fluorescence phosphatase assay)
Details: DiFMUP 10 μM, read-out: STEP IC50
Outline: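 Compounds preincubated 30 min at room temperature with purified STEP46 (1 ng/well) in 50 mM Hepes, 1 mM DTT, 0.02% Brij35, then 10 μM DiFMUP (final) added for 90 min at 27 °C; 2% DMSO, fluorescence at 360/460 nm. IC50 from four-parameter fit of % inhibition; activators reported as negative % inhibition at 25, 50 and 100 uM.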

Row | SMILES | IC50 [nM]
1 | FC(F)Oc1cccc(Nc2nc(-c3cnccn3)nc3cc(Cl)ccc23)c1 [Compound 1145] | 1000 to 10000
2 | CN(C)c1nc(-c2cccnc2)nc2ccc(-c3cccc(Cl)c3)cc12 [Compound 1333] | > 10000
3 | COc1ccc2nc(-c3cccnc3)nc(Nc3ccc(-c4ccc(Cl)cc4)cc3)c2c1 [Compound 424] | 1000 to 10000
4 | COc1ccc2nc(-c3cccnc3)nc(Nc3ccc4c(c3)OCCO4)c2c1 [Compound 297] | > 10000
5 | CN(C)c1nc(-c2cccnc2)nc2ccc(-c3ccccc3Cl)cc12 [Compound 1332] | 1000 to 10000
6 | COc1ccc2nc(-c3cccnc3)nc(Oc3ccccc3)c2c1 [Compound 348] | 1000 to 10000
7 | COc1ccc2nc(-c3cccnc3)nc(Nc3ccc4ccc(=O)oc4c3)c2c1 [Compound 330] | 1000 to 10000
8 | Fc1cc(F)cc(-c2ccc3c(Nc4ccc(F)c(Cl)c4)nc(-c4cccnc4)nc3c2)c1 [Compound 675] | < 1000
9 | COc1ccc2nc(-c3cccnc3)nc(Nc3ccc4ncoc4c3)c2c1 [Compound 341] | 1000 to 10000
10 | CCNC(=O)c1sc(Nc2nc(-c3cccnc3)nc3ccc(OC)cc23)nc1-c1ccccc1 [Compound 1126] | 1000 to 10000
11 | Fc1ccc(Nc2nc(-c3cccnc3)nc3ccc(-c4cccc(Cl)c4)cc23)cc1Cl [Compound 629] | 1000 to 10000
12 | COc1ccc2nc(-c3cccnc3)nc(Nc3ccc(F)cc3Cl)c2c1 [Compound 933] | 1000 to 10000
13 | FC1(F)Oc2ccc(Nc3nc(-c4cncnc4)nc4ccccc34)cc2O1 [Compound 1173] | > 10000
14 | CNc1nc(-c2cccnc2)nc2cc(-c3cc(F)ccc3F)ccc12 [Compound 1601] | 1000 to 10000
15 | NC(=O)c1ccccc1Nc1nc(-c2cnccn2)nc2ccc(Cl)cc12 [Compound 1157] | 1000 to 10000
16 | CNc1nc(-c2cccnc2)nc2cc(-c3ccccc3F)ccc12 [Compound 1358] | 1000 to 10000
17 | COc1ccc2nc(-c3cccnc3)nc(Nc3ccc4c(C)cc(=O)[nH]c4c3)c2c1 [Compound 333] | < 1000
18 | COc1cccc(-c2ccc3c(Nc4ccc(F)c(Cl)c4)nc(-c4cccnc4)nc3c2)c1 [Compound 681] | 1000 to 10000
19 | CNc1nc(-c2cccnc2)nc2cc(-c3cccc(F)c3)ccc12 [Compound 1359] | 1000 to 10000
20 | CNc1nc(-c2cccnc2)nc2c(C)cc(-c3cccc(F)c3)cc12 [Compound 1280] | 1000 to 10000
21 | NC(=O)c1ccccc1Nc1nc(-c2cnccn2)nc2cc(Cl)ccc12 [Compound 1143] | 1000 to 10000

Row | SMILES | IC50 [nM]
22 | COc1ccc2nc(-c3cccnc3)nc(Nc3nnc(-c4ccc(Cl)cc4)s3)c2c1 [Compound 412] | < 1000
23 | Cc1cc(Cl)cc2c(Nc3cccc(C#N)c3)nc(-c3cnccn3)nc12 [Compound 1228] | 1000 to 10000
24 | CNc1nc(-c2cccnc2)nc2ccc(-c3ccc4sccc4c3)cc12 [Compound 1341] | 1000 to 10000
25 | N#Cc1cccc(-c2ccc3c(Nc4ccc(F)c(Cl)c4)nc(-c4cccnc4)nc3c2)c1 [Compound 686] | < 1000
26 | Fc1ccc(-c2ccc3nc(-c4cccnc4)nc(Nc4ccc(F)c(Cl)c4)c3c2)cc1 [Compound 638] | 1000 to 10000
27 | N#Cc1cccc(Nc2nc(-c3cnccn3)nc3ccccc23)c1 [Compound 1221] | > 10000
28 | COc1ccc2nc(-c3cccnc3)nc(Nc3nc(-c4ccc(Cl)cc4)cs3)c2c1 [Compound 399] | < 1000
29 | CNc1nc(-c2cccnc2)nc2ccc(-c3cccc4occc34)cc12 [Compound 1370] | 1000 to 10000
30 | N#Cc1cccc(Nc2nc(-c3ccnnc3)nc3ccccc23)c1 [Compound 1217] | 1000 to 10000
31 | Fc1ccc(Nc2nc(-c3ccncn3)nc3ccccc23)cc1Cl [Compound 1206] | 1000 to 10000
32 | COc1ccc2nc(-c3cccnc3)nc(Nc3ccc4c(c3)COC4)c2c1 [Compound 962] | < 1000
33 | COc1ccc(-c2csc(Nc3nc(-c4cccnc4)nc4ccc(OC)cc34)n2)cc1 [Compound 435] | < 1000
34 | CCOc1ccc2nc(-c3cccnc3)nc(Nc3nc(-c4ccc(Cl)cc4)cs3)c2c1 [Compound 467] | 1000 to 10000
35 | COc1ccc2nc(-c3cccnc3)nc(Nc3nc(-c4cccc(C)c4)cs3)c2c1 [Compound 440] | 1000 to 10000
36 | CNc1nc(-c2cccnc2)nc2c(C)c(-c3ccc(F)cc3)ccc12 [Compound 1447] | > 10000
37 | CN(C)c1ccc2nc(-c3ccnnc3)nc(Nc3ccccc3C(N)=O)c2c1 [Compound 1151] | 1000 to 10000
38 | Nc1nc(-c2cccnc2)nc2ccc(-c3ccccc3Cl)cc12 [Compound 1328] | > 10000
39 | COc1cc(-c2ccc3nc(-c4cccnc4)nc(Nc4ccc(F)c(Cl)c4)c3c2)ccc1C [Compound 670] | < 1000
40 | CNc1nc(-c2cccnc2)nc2cc(-c3ccc(C(C)=O)cc3)ccc12 [Compound 1351] | 1000 to 10000
41 | COc1ccc2nc(-c3cccnc3)nc(Nc3ccc4ccsc4c3)c2c1 [Compound 309] | 1000 to 10000
42 | CNc1nc(-c2cccnc2)nc2c(C)c(-c3ccccc3)ccc12 [Compound 1454] | > 10000

Row | SMILES | IC50 [nM]
43 | CCOc1ccc2nc(-c3cccnc3)nc(Nc3nc(-c4ccc(F)cc4F)cs3)c2c1 [Compound 472] | 1000 to 10000
44 | Fc1ccc(Nc2nc(-c3cnccn3)nc3ccccc23)cc1Cl [Compound 1219] | 1000 to 10000
45 | COc1ccc2nc(-c3cccnc3)nc(Nc3cc(-c4ccc(Cl)cc4)nn3C)c2c1 [Compound 403] | 1000 to 10000
46 | CN(C)c1nc(-c2cccnc2)nc2cc(-c3cc(F)ccc3F)ccc12 [Compound 1396] | 1000 to 10000
47 | CCOc1ccc2nc(-c3cccnc3)nc(Nc3nc(-c4ccc(F)c(F)c4)cs3)c2c1 [Compound 468] | < 1000
48 | CNc1nc(-c2cccnc2)nc2cc(-c3ccc(C#N)cc3)c(C)cc12 [Compound 1410] | 1000 to 10000
49 | CCOc1ccc2nc(-c3cccnc3)nc(Nc3nc(-c4ccccc4)cs3)c2c1 [Compound 473] | 1000 to 10000
50 | CNc1nc(-c2cccnc2)nc2ccc(-c3cccnc3OC)cc12 [Compound 1330] | > 10000
51 | COc1ccccc1-c1ccc2nc(-c3cccnc3)nc(Nc3ccc(F)c(Cl)c3)c2c1 [Compound 637] | 1000 to 10000
52 | CNc1nc(-c2cccnc2)nc2ccc(-c3ccc(OC)cc3)c(C)c12 [Compound 1458] | > 10000
53 | CC(=O)c1ccc(-c2ccc3nc(-c4cccnc4)nc(N)c3c2)cc1 [Compound 1327] | > 10000
54 | CN(C)c1ccc(-c2ccc3c(Nc4ccc(F)c(Cl)c4)nc(-c4cccnc4)nc3c2)cc1 [Compound 694] | < 1000
55 | COc1ccc2nc(-c3cncnc3)nc(Nc3ccccc3C(N)=O)c2c1 [Compound 1172] | 1000 to 10000
56 | c1cncc(-c2ccc3nc(-c4cccnc4)nc(Nc4ccc5ccsc5c4)c3c2)c1 [Compound 313] | < 1000
57 | NC(=O)c1ccccc1Nc1nc(-c2cccnc2)nc2cc(-c3ccc(F)cc3F)ccc12 [Compound 704] | < 1000
58 | CNc1c(-c2cccc(C#N)c2)ccc2nc(-c3cccnc3)nc(C)c12 [Compound 1423] | > 10000
59 | CN(C)c1cccc(-c2ccc3c(Nc4ccc(F)c(Cl)c4)nc(-c4cccnc4)nc3c2)c1 [Compound 693] | < 1000
60 | COc1ccc2nc(-c3ccnnc3)nc(Nc3ccc(F)c(Cl)c3)c2c1 [Compound 1185] | 1000 to 10000
61 | CNc1c(-c2cc(F)cc(F)c2)ccc2nc(-c3cccnc3)nc(C)c12 [Compound 1422] | 1000 to 10000
62 | COc1ccc2nc(-c3cccnc3)nc(Nc3ccccc3C(=O)NCc3ccc4c(c3)CCC4)c2c1 [Compound 900] | 1000 to 10000
